According to patent US20070213338A1, “Triazolo-Pyridazine Compounds and Derivatives Thereof Useful in the Treatment of Neuropathic Pain” (priority 2003, published 2007):

Tested on: nerve injury-induced tactile allodynia
Assay: Spinal Nerve Ligation Model (Chung Model)
Format: in vivo, Male Sprague Dawley rats
Settings: rat, i.p. dosing at 30 mg/kg
Excerpt: The spinal nerve ligation model of neuropathic pain was used to assess the effects of test compounds on nerve injury-induced tactile allodynia (S. H. Kim and J. M. Chung, Pain 50:355-363(1992)). Male Sprague Dawley rats (175-200 g) received unilateral tight ligation of the left L5/L6 spinal nerves distal to the dorsal root ganglion using 4-0 silk suture. Behavioral nociceptive testing occurred 7-14 days following spinal nerve ligation by placing the rats in chambers on a wire mesh. Rats were tested for tactile allodynia (decreased hindpaw withdrawal threshold to non-noxious punctate stimulation) by applying a series of calibrated von Frey filaments to the plantar aspect of the left hindpaw ipsilateral to the site of nerve injury. The mean 50% hindpaw withdrawal threshold (g.) was determined using the Dixon “up-own” non-parametric test (Chaplan et al., J. Neurosci. Methods, 53:55-63(1994)). […] Following determination of pre-drug withdrawal thresholds, rats received either an i.p. or p.o. injection of test compound. The effect of the test compound on tactile allodynia was determined over time by measuring hindpaw withdrawal thresholds 30, 60, 90, 120 min post-injection.

Row | Structure (SMILES) | effect on tactile allodynia (hindpaw withdrawal threshold) [%]
1 | FC(F)(F)c1nnc2c3ccccc3c(OCc3cccc(CNCCc4ccccc4)n3)nn12 [Example 58, Phenethyl-[6-(3-trifluoromethyl-[1,2,4]triazolo[3,4,-a]phthalazin-6-yloxymethyl)-pyridin-2-ylmethyl]-amine] | 100
2 | Cc1nnc2c3ccccc3c(OCc3cccc(CNCCc4ccccc4)n3)nn12 [Example 23] | 65
